A value given as a limit tells only on which side of the number the result lay.

This note sets out measurements from patent US7704995B2 (Exelixis, Inc., priority 2003, dated 2010).

The assay concerns the target T1, Chk1 (Homo sapiens, UniProt O14757).
T1 construct: purchased Upstate Biotechnology
T1 sequence (O14757 1-476): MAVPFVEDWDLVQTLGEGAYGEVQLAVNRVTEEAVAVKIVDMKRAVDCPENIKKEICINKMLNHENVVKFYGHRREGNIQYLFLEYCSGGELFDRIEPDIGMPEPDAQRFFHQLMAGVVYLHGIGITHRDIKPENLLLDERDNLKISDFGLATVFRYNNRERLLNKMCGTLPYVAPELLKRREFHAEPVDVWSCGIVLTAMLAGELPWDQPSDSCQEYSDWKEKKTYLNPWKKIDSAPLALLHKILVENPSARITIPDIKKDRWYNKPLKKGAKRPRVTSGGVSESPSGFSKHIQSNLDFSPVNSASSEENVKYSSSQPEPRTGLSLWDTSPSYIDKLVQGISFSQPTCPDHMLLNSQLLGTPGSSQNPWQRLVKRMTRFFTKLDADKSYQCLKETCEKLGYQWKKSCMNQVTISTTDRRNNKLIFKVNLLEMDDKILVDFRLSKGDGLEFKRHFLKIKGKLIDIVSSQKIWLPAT
Kind of assay: Chk1 kinase assay: incorporation of γ-33P ATP into immobilized myelin basic protein. It is filed as biochemical. The note with it: Table 11; Chk1 only; read-out: Chk1 IC50. In short, it runs like this:
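Immobilized-MBP radiometric kinase assay, room temperature for 1 h; ATP 10 μM (Chk1, 10 nM enzyme) or 30 μM (Chk2, 20 nM enzyme) with 33P tracer. Values are IC50s, with Ki derived from them.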

In general, IC50 refers to the concentration that gives 50% inhibition. Turning to `N=C(NNc1ccccc1)c1nc(-c2cccc(C(=O)NCc3ccccc3)c2)cnc1N` [Example 619, 3-{5-amino-6-[imino(2-phenylhydrazino)methyl]pyrazin-2-yl}-N-(phenylmethyl)benzamide], the IC50 fell in the range of 1 to 10 µM. Turning to `N=C(NN1CCOCC1)c1nc(-c2cccc(C(=O)NCc3ccccc3)c2)cnc1N` [Example 620, 3-{5-amino-6-[imino(morpholin-4-ylamino)methyl]pyrazin-2-yl}-N-(phenylmethyl)benzamide], the IC50 fell in the range of 1 to 10 µM. On to `CN1CCN(NC(=N)c2nc(-c3cccc(C(=O)NCc4ccccc4)c3)cnc2N)CC1` [Example 621, 3-(5-amino-6-{imino[(4-methylpiperazin-1-yl)amino]methyl}pyrazin-2-yl)-N-(phenylmethyl)benzamide], for which the IC50 is not below 10 µM.

As for `N=C(NN1CCCCC1)c1nc(-c2cccc(C(=O)NCc3ccccc3)c2)cnc1N` [Example 622, 3-{5-amino-6-[imino(piperidin-1-ylamino)methyl]pyrazin-2-yl}-N-(phenylmethyl)benzamide], the IC50 was not below 10 µM. As to `N=C(NN1CCCCCC1)c1nc(-c2cccc(C(=O)NCc3ccccc3)c2)cnc1N` [Example 623, 3-{5-amino-6-[(azepan-1-ylamino)(imino)methyl]pyrazin-2-yl}-N-(phenylmethyl)benzamide], the IC50 lay within 1 to 10 µM. With `COC[C@H]1CCCN1NC(=N)c1nc(-c2cccc(C(=O)NCc3ccccc3)c2)cnc1N` [Example 624, 3-{5-amino-6-[imino({(2R)-2-[(methyloxy)methyl]pyrrolidin-1-yl}amino)methyl]pyrazin-2-yl}-N-(phenylmethyl)benzamide], the IC50 is not below 10 µM. For `Nc1ncc(-c2cccc(CO)c2)nc1-c1nc(C2CCCNC2)n[nH]1` (stereo not shown) [Example 625, {3-[5-amino-6-(3-piperidin-3-yl-1H-1,2,4-triazol-5-yl)pyrazin-2-yl]phenyl}methanol], the IC50 fell in the range of 0.05 to 1 µM. As for `C/C(=N\N1CCOCC1)c1nc(-c2cccc(C(=O)NCc3ccccc3)c2)cnc1N` [Example 626, 3-{5-amino-6-[(1E)-N-morpholin-4-ylethanimidoyl]pyrazin-2-yl}-N-(phenylmethyl)benzamide], the figure is 1 to 10 µM; as for `C/C(=N\Nc1ccc(C(=O)O)cc1)c1nc(-c2cccc(C(=O)NCc3ccccc3)c2)cnc1N` [Example 627, 4-((2E)-2-{1-[3-amino-6-(3-{[(phenylmethyl)amino]carbonyl}phenyl)pyrazin-2-yl]ethylidene}hydrazino)benzoic acid], 1 to 10 µM; as for `CCOC(=O)CN/N=C(\C)c1nc(-c2cccc(C(=O)NCc3ccccc3)c2)cnc1N` [Example 628, ethyl ((2E)-2-{1-[3-amino-6-(3-{[(phenylmethyl)amino]carbonyl}phenyl)pyrazin-2-yl]ethylidene}hydrazino)acetate], not below 10 µM. As for `C/C(=N\N(C)C)c1nc(-c2cccc(C(=O)NCc3ccccc3)c2)cnc1N` [Example 629, 3-{5-amino-6-[(1E)-N,N-dimethylethanehydrazonoyl]pyrazin-2-yl}-N-(phenylmethyl)benzamide], the IC50 lay within 0.05 to 1 µM. Regarding `C/C(=N\Nc1ccc(S(C)(=O)=O)cc1)c1nc(-c2cccc(C(=O)NCc3ccccc3)c2)cnc1N` [Example 630, 3-(5-amino-6-{(1E)-N-[4-(methylsulfonyl)phenyl]ethanehydrazonoyl}pyrazin-2-yl)-N-(phenylmethyl)benzamide], the half-maximal inhibitory concentration (IC50) is not below 10 µM. In the case of `C/C(=N\Nc1ccc(C#N)cc1)c1nc(-c2cccc(C(=O)NCc3ccccc3)c2)cnc1N` [Example 631, 3-{5-amino-6-[(1E)-N-(4-cyanophenyl)ethanehydrazonoyl]pyrazin-2-yl}-N-(phenylmethyl)benzamide], the IC50 was not below 10 µM.

In the case of `C/C(=N\Nc1ccccn1)c1nc(-c2cccc(C(=O)NCc3ccccc3)c2)cnc1N` [Example 632, 3-{5-amino-6-[(1E)-N-pyridin-2-ylethanehydrazonoyl]pyrazin-2-yl}-N-(phenylmethyl)benzamide], the IC50 is not below 10 µM. On to `C/C(=N\NC(=N)N)c1nc(-c2cccc(C(=O)NCc3ccccc3)c2)cnc1N` [Example 633, 3-(5-amino-6-{(1E)-N-[amino(imino)methyl]ethanehydrazonoyl}pyrazin-2-yl)-N-(phenylmethyl)benzamide], for which the IC50 is 1 to 10 µM. As for `C/C(=N\Nc1ccc(OC(F)(F)F)cc1)c1nc(-c2cccc(C(=O)NCc3ccccc3)c2)cnc1N` [Example 634, 3-[5-amino-6-((1E)-N-{4-[(trifluoromethyl)oxy]phenyl}ethanehydrazonoyl)pyrazin-2-yl]-N-(phenylmethyl)benzamide], the IC50 was not below 10 µM. As for `CC(=NNc1ccc([N+](=O)[O-])cc1)c1nc(-c2cccc(C(=O)NCc3ccccc3)c2)cnc1N` [Example 635, 3-(5-Amino-6-{1-[(4-nitro-phenyl)-hydrazono]-ethyl}-pyrazin-2-yl)-N-benzyl-benzamide], the figure is not below 10 µM; as for `C/C(=N\Nc1nccc(C(F)(F)F)n1)c1nc(-c2cccc(C(=O)NCc3ccccc3)c2)cnc1N` [Example 636, 3-(5-amino-6-{(1E)-N-[4-(trifluoromethyl)pyrimidin-2-yl]ethanehydrazonoyl}pyrazin-2-yl)-N-(phenylmethyl)benzamide], 1 to 10 µM.

Turning to `C/C(=N\n1nnc2ccccc21)c1nc(-c2cccc(C(=O)NCc3ccccc3)c2)cnc1N` [Example 637, 3-{5-amino-6-[(1E)-N-1H-1,2,3-benzotriazol-1-ylethanimidoyl]pyrazin-2-yl}-N-(phenylmethyl)benzamide], the 50% inhibitory concentration (IC50) was not below 10 µM.

As for `CN/N=C(\C)c1nc(-c2cccc(C(=O)NCc3ccccc3)c2)cnc1N` [Example 638, 3-{5-amino-6-[(1E)-N-methylethanehydrazonoyl]pyrazin-2-yl}-N-(phenylmethyl)benzamide], the IC50 is not below 10 µM. `Nc1ncc(-c2cccc(CN[C@H]3CCc4ccccc43)c2)nc1-c1nc(C2CCNCC2)n[nH]1` [Example 639, 5-(3-{[(1S)-2,3-dihydro-1H-inden-1-ylamino]methyl}phenyl)-3-(3-piperidin-4-yl-1H-1,2,4-triazol-5-yl)pyrazin-2-amine]: the half-inhibitory concentration (IC50) lay within 0.05 to 1 µM. `C/C(=N\Nc1ccc(C(F)(F)F)cc1)c1nc(-c2cccc(C(=O)NCc3ccccc3)c2)cnc1N` [Example 640, 3-(5-amino-6-{(1E)-N-[4-(trifluoromethyl)phenyl]ethanehydrazonoyl}pyrazin-2-yl)-N-(phenylmethyl)benzamide]: the IC50 is not below 10 µM. As to `C/C(=N\Nc1ccccc1)c1nc(-c2cccc(C(=O)NCc3ccccc3)c2)cnc1N` [Example 641, 3-{5-amino-6-[(1E)-N-phenylethanehydrazonoyl]pyrazin-2-yl}-N-(phenylmethyl)benzamide], the IC50 is 1 to 10 µM. As for `C/C(=N\N1CCN(C)CC1)c1nc(-c2cccc(C(=O)NCc3ccccc3)c2)cnc1N` [Example 642, 3-{5-amino-6-[(1E)-N-(4-methylpiperazin-1-yl)ethanimidoyl]pyrazin-2-yl}-N-(phenylmethyl)benzamide], the figure is 0.05 to 1 µM; as for `Nc1ncc(-c2cccc(CO)c2)nc1-c1nc(C2CCNC2)n[nH]1` (stereo not shown) [Example 643, {3-[5-amino-6-(3-pyrrolidin-3-yl-1H-1,2,4-triazol-5-yl)pyrazin-2-yl]phenyl}methanol], 0.05 to 1 µM.
